Laboratory results: ChEMBL document CHEMBL1155612, “Lyngbyabellin B, a toxic and antifungal secondary metabolite from the marine cyanobacterium Lyngbya majuscula” (J Nat Prod, 2000)
Calls of active or inactive are those of the source. The calls are words filed in the database; no cut-off is given here.

Key:
Artemia = assay: Toxicity against brine shrimp after 24 hrs; assay type: organism-based; conditions: in vivo
Candida albicans [1] = assay: Antimicrobial activity against Candida albicans ATCC 14053 at 100 ug/disk by disk agar plate assay; assay type: functional; conditions: read-out: IZ
Candida albicans [2] = assay: Antimicrobial activity against Candida albicans ATCC 14053 at 10 ug/disk by disk agar plate assay; assay type: functional, organism-based
Pseudomonas aeruginosa = assay: Antimicrobial activity against Pseudomonas aeruginosa ATCC 10145 by disk agar plate assay; assay type: functional, organism-based
Escherichia coli = assay: Antimicrobial activity against Escherichia coli ATCC 11775 by disk agar plate assay; assay type: functional, organism-based
[3] = test system: Salmonella enterica subsp. enterica; assay: Antimicrobial activity against Salmonella choleraesuis subsp. choleraesuis ATCC 14028 by disk agar plate assay; assay type: functional, organism-based
Bacillus subtilis = assay: Antimicrobial activity against Bacillus subtilis ATCC 6051 by disk agar plate assay; assay type: functional, organism-based
Staphylococcus aureus = assay: Antimicrobial activity against Staphylococcus aureus ATCC 12600 by disk agar plate assay; assay type: functional, organism-based

Q: Which LD50 (Artemia) does the source give for `CC(C)[C@@H]1NC(=O)CNC(=O)[C@@H]2CSC(=N2)[C@H](C(C)(C)O)OC(=O)C(C)(C)[C@H](CCCC(C)(Cl)Cl)OC(=O)c2csc1n2` [LYNGBYABELLIN B] here?
A: 3 ppm

Q: And the zone of inhibition at 100 µg/disc (Candida albicans [1])?
A: 10.5 mm

Q: And the Activity (Candida albicans [2])?
A: Active

Q: What about the Activity (Pseudomonas aeruginosa) of the same compound?
A: inactive

Q: What about the Activity (Escherichia coli) of the same compound?
A: inactive

Q: And the Activity [3]?
A: inactive

Q: What about the Activity (Bacillus subtilis) of the same compound?
A: inactive

Q: And the Activity (Staphylococcus aureus)?
A: inactive
